Measured values taken from EP4818168A1, “FUSED RING COMPOUND, PHARMACEUTICAL COMPOSITION THEREOF AND USE THEREOF” (priority 2023, dated 2025).
Like-named read-outs stand apart in the source and are kept apart here.

Key:
AURKA = biological target: T1, AURKA (Homo sapiens, UniProt O14965); type: cell-based
T1 construct: endogenous in cells; host or cells: Jurkat cells
T1 sequence (O14965 1-403): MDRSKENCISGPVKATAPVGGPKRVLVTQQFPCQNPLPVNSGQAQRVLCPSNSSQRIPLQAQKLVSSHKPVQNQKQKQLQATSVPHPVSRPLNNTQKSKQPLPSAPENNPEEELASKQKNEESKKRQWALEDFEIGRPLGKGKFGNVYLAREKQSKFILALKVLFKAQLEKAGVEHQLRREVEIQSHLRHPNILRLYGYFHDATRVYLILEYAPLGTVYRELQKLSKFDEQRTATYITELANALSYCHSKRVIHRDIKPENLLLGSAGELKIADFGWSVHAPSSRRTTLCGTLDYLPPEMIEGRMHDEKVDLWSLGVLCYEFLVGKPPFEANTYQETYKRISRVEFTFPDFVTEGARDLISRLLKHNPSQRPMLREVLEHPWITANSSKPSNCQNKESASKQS
How it was run: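 AURKA degradation read by western blot: band signal, fluorescent or chemiluminescent, curve-fitted to derive DC50. Cells were Jurkat, plated at 1×10^6 cells/500 µL with compound, then lysed and blotted onto nitrocellulose, primary antibody overnight at 4°C.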

H82 cells = experiment: cells; type: cell-based; details: Homo sapiens
Method: CellTiter-Glo (CTG) is a rapid cell viability test method based on ATP detection. […] Adenosine triphosphate (ATP) participates in various enzymatic reactions in organisms and is an indicator of living cell metabolism. Its content directly reflects the number of living cells and cell status. During the experiment, equal volume of CTG reagent is added to the cultured cells to measure the luminescence value. The chemiluminescent signal value is proportional to the amount of ATP, thus reflecting the number of viable cells. Therefore, cell viability can be obtained by detecting the ATP content. Compounds that affect cell viability will inhibit cell viability in a concentration-dependent manner, allowing a curve to be fitted to obtain the IC50 value.
The experimental procedure is as follows: • 11. Place the cell suspension in a 15 mL centrifuge tube, centrifuge at 1000 rpm for 5 min at room temperature, discard the supernatant, and collect the cell pellet. • 12. Resuspend the cell pellet with preheated complete cell culture medium (RPMI1640+10%FBS+1%PS), and use a Countess® automated cell counter to detect cell viability and density. […] Transfer the compound solution to a 96-well plate seeded with cells (final concentration of DMSO 0.1%), and place in a cell incubator at 37°C, 5% CO2 for 6 days. • 15. […] Protect from light during the whole process. Perform optical signal readings using a SpectraMax i3x reader. • 16. Data analysis: Remaining activity (%) = 100% * (1 - ((LumDMSO - Lummedium) - Lumsample) / (LumDMSO - LumPBS/medium)). Use GraphPad Prism 9.0 software to draw an S-shaped dose-survival rate curve and calculate the IC50 value using a nonlinear regression model.

[1] = 100 nM compound, Jurkat cells, 24 h, Table 2
[2] = 1 µM compound, Jurkat cells, 24 h, Table 2
[3] = NCI-H82, H82 cells, 4000 cells/well, CellTiter-Glo, read-out: IC50 in H82 Cells
[4] = NCI-H82, read-out: IC50 in H82 Cells

Row | Compound | Percentage of AURKA Degradation Induced by 100 nM Compound in Jurkat Cells (AURKA; [1]) | Percentage of AURKA Degradation Induced by 1 µM Compound in Jurkat Cells (AURKA; [2]) | IC50 (H82 cells; [3]) [nM] | IC50 (H82 cells; [4]) [nM] | Percentage of AURKA Degradation Induced by 100 nM Compound in Jurkat Cells (AURKA) | Percentage of AURKA Degradation Induced by 1 µM Compound in Jurkat Cells (AURKA)
1 | Cc1nc(N2CCC3(CC2)CC(NC(=O)c2ccc(Nc4ncc5c(n4)-c4ccc(Cl)cc4C(c4c(F)cccc4F)=NC5)cc2)C3)ccc1N1CCC(=O)NC1=O [Compound A112] | +++ (Degradation > 70%) | +++ (Degradation > 70%) | < 1000 |  |  | 
2 | O=C1CCN(c2ccc(N3CCC4(CC3)CC(NC(=O)c3ccc(Nc5ncc6c(n5)-c5ccc(C7CC7)cc5C(c5c(F)cccc5F)=NC6)cc3)C4)nc2)C(=O)N1 [Compound A115] | +++ (Degradation > 70%) | +++ (Degradation > 70%) | < 1000 |  |  | 
3 | O=C1CCN(c2ccc(N3CCC4(CC3)CC(NC(=O)c3ccc(Nc5ncc6c(n5)-c5ccccc5C(c5c(F)cccc5F)=NC6)cc3)C4)nc2)C(=O)N1 [Compound A116] | +++ (Degradation > 70%) | +++ (Degradation > 70%) | < 1000 |  |  | 
4 | Cc1ccc2c(c1)C(c1c(F)cccc1F)=NCc1cnc(Nc3ccc(C(=O)NC4CC5(CCN(c6ccc(N7CCC(=O)NC7=O)cn6)CC5)C4)cc3)nc1-2 [Compound A118] | ++ (30% < Degradation ≤ 70%) | +++ (Degradation > 70%) | < 1000 |  |  | 
5 | O=C1CCN(c2ccc(C3CN(C4CN(C(=O)c5ccc(Nc6ncc7c(n6)-c6ccc(Cl)cc6C(c6c(F)cccc6F)=NC7)cc5)C4)C3)nc2)C(=O)N1 [Compound A120] | + (Degradation ≤ 30%) | + (Degradation ≤ 30%) |  | < 1000 |  | 
6 | O=C1CCN(c2ccc(N3CCN(Cc4cnc(-c5ccc(Nc6ncc7c(n6)-c6ccc(Cl)cc6C(c6c(F)cccc6F)=NC7)cc5)[nH]4)CC3)cc2)C(=O)N1 [Compound A121] | +++ (Degradation > 70%) | ++ (30% < Degradation ≤ 70%) | < 1000 |  |  | 
7 | COc1ccc2c(c1)C(c1c(F)cccc1F)=NCc1cnc(Nc3ccc(C(=O)NC4CC5(CCN(c6ccc(N7CCC(=O)NC7=O)cn6)CC5)C4)cc3)nc1-2 [Compound A122] | +++ (Degradation > 70%) | +++ (Degradation > 70%) | < 1000 |  |  | 
8 | O=C1CCN(c2ccc(N3CCN(CC#Cc4ccc(Nc5ncc6c(n5)-c5ccc(Cl)cc5C(c5c(F)cccc5F)=NC6)cc4)CC3)cc2)C(=O)N1 [Compound A124] | + (Degradation ≤ 30%) | + (Degradation ≤ 30%) | < 1000 |  |  | 
9 | O=C1CCN(c2cccc(N3CCN(CCOc4cccc(Nc5ncc6c(n5)-c5ccc(Cl)cc5C(c5c(F)cccc5F)=NC6)c4)CC3)c2)C(=O)N1 [Compound A125] | ++ (30% < Degradation ≤ 70%) | +++ (Degradation > 70%) | < 1000 |  |  | 
10 | O=C1CCN(c2cccc(C3CN(CC#Cc4cccc(Nc5ncc6c(n5)-c5ccc(Cl)cc5C(c5c(F)cccc5F)=NC6)c4)C3)c2)C(=O)N1 [Compound A126] | + (Degradation ≤ 30%) | + (Degradation ≤ 30%) | < 1000 |  |  | 
11 | O=C1CCN(c2cccc(N3CCC(C#Cc4cccc(Nc5ncc6c(n5)-c5ccc(Cl)cc5C(c5c(F)cccc5F)=NC6)c4)CC3)c2)C(=O)N1 [Compound A127] |  |  |  | < 1000 | +++ (key: +: Degradation ≤ 30%; ++: 30% < Degradation ≤ 70%; +++: Degradation > 70%) | +++ (key: +: Degradation ≤ 30%; ++: 30% < Degradation ≤ 70%; +++: Degradation > 70%)
12 | O=C1CCN(c2ccc(N3CCC4(CC3)CC(NC(=O)c3ccc(Nc5ncc6c(n5)-c5ccc(Cl)cc5C(c5ccccn5)=NC6)cc3)C4)nc2)C(=O)N1 [Compound A128] | +++ (Degradation > 70%) | +++ (Degradation > 70%) | < 1000 |  |  | 
13 | Cc1c(N2CCN(CCC#Cc3cccc(Nc4ncc5c(n4)-c4ccc(Cl)cc4C(c4c(F)cccc4F)=NC5)c3)CC2)cccc1N1CCC(=O)NC1=O [Compound A129] | +++ (Degradation > 70%) | +++ (Degradation > 70%) | < 1000 |  |  | 
14 | O=C1CCN(c2ccnc(N3CCN(CC#Cc4cccc(Nc5ncc6c(n5)-c5ccc(Cl)cc5C(c5c(F)cccc5F)=NC6)c4)CC3)c2)C(=O)N1 [Compound A130] | ++ (30% < Degradation ≤ 70%) | ++ (30% < Degradation ≤ 70%) | < 1000 |  |  | 
15 | O=C1CCN(c2cncc(N3CCN(CC#Cc4cccc(Nc5ncc6c(n5)-c5ccc(Cl)cc5C(c5c(F)cccc5F)=NC6)c4)CC3)c2)C(=O)N1 [Compound A131] | +++ (Degradation > 70%) | +++ (Degradation > 70%) | < 1000 |  |  | 
16 | O=C1CCN(c2ccc(N3CCC(N4CCN(c5ccc(Nc6ncc7c(n6)-c6ccc(Cl)cc6C(c6c(F)cccc6F)=NC7)cc5)C(=O)C4)CC3)nc2)C(=O)N1 [Compound A132] |  |  |  | < 1000 | +++ (key: +: Degradation ≤ 30%; ++: 30% < Degradation ≤ 70%; +++: Degradation > 70%) | +++ (key: +: Degradation ≤ 30%; ++: 30% < Degradation ≤ 70%; +++: Degradation > 70%)
17 | O=C1CCN(c2cccc(N3CC(CC#Cc4cccc(Nc5ncc6c(n5)-c5ccc(Cl)cc5C(c5c(F)cccc5F)=NC6)c4)C3)c2)C(=O)N1 [Compound A133] | ++ (30% < Degradation ≤ 70%) | +++ (Degradation > 70%) | < 1000 |  |  | 
18 | O=C1CCN(c2cnc(N3CCN(CCNC(=O)c4ccc(Nc5ncc6c(n5)-c5ccc(C7CC7)cc5C(c5c(F)cccc5F)=NC6)cc4)CC3)s2)C(=O)N1 [Compound A134] | +++ (Degradation > 70%) | ++ (30% < Degradation ≤ 70%) | < 1000 |  |  | 
